The supplement of paper PMC8671470
± gives the standard deviation of the averaged measurements.

The molecules below were run on HL-60 (assay: cell viability (% survival relative to DMSO control); higher = less cytotoxic). Conditions: 10 µM; 72 h; co-treatment: GSK2194069 100 nM.
Summary of the method: (§1)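 For each screen, HL-60 cells in RPMI 1640 with 10% FBS carried either DMSO or 100 nM of one of three metabolic inhibitors while the full library was applied at five tenfold concentrations, 1–10,000 nM, in duplicate. Plates were 384-well and were kept 72 h at 37 °C, 5% CO2. Viability, measured by CellTiter-Glo, was normalised to wells with DMSO and with 10 μM proteasome inhibitor. Where area under the curve appears, it was fitted by four-parameter log-logistic models in drc and PharmacoGx.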

Point of comparison: `NS(=O)(=O)c1ccc(NC(=O)Cc2ccccc2)cc1` [4-(2-Phenylacetamido)Benzenesulfonamide], cell viability 103 ± 1.3%. Against it:
- CCC(CC#N)OC(=O)N[C@@H](C)c1cccc(NC(=O)Nc2ccc(-c3cnco3)c(OC)c2)c1 (stereo in doubt) [AVN-944] — lower, 12.3 ± 0.38%
- OC[C@H]1OC(O)C[C@@H](O)[C@@H]1O (stereo not given in full) [2-deoxyglucose] — within error, 104 ± 6.3%
- O=C(C(=O)c1ccc(Br)cc1)c1ccc(Br)cc1 [4,4'-Dibromobenzil] — lower, 96.28 ± 0.88%
- NCc1ccc(S(N)(=O)=O)cc1 [4-Homosulfanilamide] — within error, 97.5 ± 5.8%
- Oc1ncc(F)c(O)n1 [5-fluorouracil] — lower, 75.9 ± 2.7%
- NCc1ccc(-c2cccnc2)s1 [(5-Pyrid-3-YLTHIEN-2-YL)METHYLAMINE] — lower, 96.7 ± 4.5%
- CC(=O)N[C@@H](CS)C(=O)O [Acetylcysteine] — lower, 91.4 ± 4.3%
- CCCCC/C=C\C/C=C\C/C=C\C/C=C\CCCC(=O)C(F)(F)F [Arachidonyl trifluoromethyl ketone] — lower, 56.72 ± 0.35%
- O=[As]O[As]=O (stereo not given) [Arsenic trioxide] — lower, 87.09 ± 0.7%

Same assay, conditions: 10 µM; 72 h; co-treatment: pictilisib 100 nM

Point of comparison: `CCC(CC#N)OC(=O)N[C@@H](C)c1cccc(NC(=O)Nc2ccc(-c3cnco3)c(OC)c2)c1` (stereo in doubt) [AVN-944], cell viability 9.49 ± 0.48%. Against it:
- CC(=O)N1CCN(c2ccc(OC[C@@H]3CO[C@@](Cn4ccnc4)(c4ccc(Cl)cc4Cl)O3)cc2)CC1 (racemic) [Ketoconazole] — higher, 102 ± 1.4%
- OC[C@H]1OC(O)C[C@@H](O)[C@@H]1O (stereo not given in full) [2-deoxyglucose] — higher, 108 ± 14%
- O=C(C(=O)c1ccc(Br)cc1)c1ccc(Br)cc1 [4,4'-Dibromobenzil] — higher, 101.7 ± 0.5%
- NS(=O)(=O)c1ccc(NC(=O)Cc2ccccc2)cc1 [4-(2-Phenylacetamido)Benzenesulfonamide] — higher, 92.9 ± 7.5%
- NCc1ccc(S(N)(=O)=O)cc1 [4-Homosulfanilamide] — higher, 98.3 ± 6.2%
- Oc1ncc(F)c(O)n1 [5-fluorouracil] — higher, 68.7 ± 1.1%
- NCc1ccc(-c2cccnc2)s1 [(5-Pyrid-3-YLTHIEN-2-YL)METHYLAMINE] — higher, 96.9 ± 2.8%
- CC(=O)N[C@@H](CS)C(=O)O [Acetylcysteine] — higher, 86.3 ± 9.3%
- CCCCC/C=C\C/C=C\C/C=C\C/C=C\CCCC(=O)C(F)(F)F [Arachidonyl trifluoromethyl ketone] — higher, 96.6 ± 9.5%
- O=[As]O[As]=O (stereo not given) [Arsenic trioxide] — higher, 63.4 ± 0.69%

What follows are molecules tested on HL-60 (assay: area under dose-response curve (viability, 1 nM-10 uM) (fraction (0-1)); higher = more sensitive). Conditions: 72 h; co-treatment: AZD3965 100 nM.
Summary of the method: as §1

Point of comparison: `CCC(CC#N)OC(=O)N[C@@H](C)c1cccc(NC(=O)Nc2ccc(-c3cnco3)c(OC)c2)c1` (stereo in doubt) [AVN-944], “area under dose-response curve” value 0.273. Against it:
- CC(=O)N1CCN(c2ccc(OC[C@@H]3CO[C@@](Cn4ccnc4)(c4ccc(Cl)cc4Cl)O3)cc2)CC1 (racemic) [Ketoconazole] — lower, < 0.0301
- OC[C@H]1OC(O)C[C@@H](O)[C@@H]1O (stereo not given in full) [2-deoxyglucose] — lower, < 0.0301
- O=C(C(=O)c1ccc(Br)cc1)c1ccc(Br)cc1 [4,4'-Dibromobenzil] — lower, < 0.0301
- NS(=O)(=O)c1ccc(NC(=O)Cc2ccccc2)cc1 [4-(2-Phenylacetamido)Benzenesulfonamide] — lower, < 0.0301
- NCc1ccc(S(N)(=O)=O)cc1 [4-Homosulfanilamide] — lower, < 0.0301
- Oc1ncc(F)c(O)n1 [5-fluorouracil] — lower, < 0.0301
- NCc1ccc(-c2cccnc2)s1 [(5-Pyrid-3-YLTHIEN-2-YL)METHYLAMINE] — lower, < 0.0301
- CC(=O)N[C@@H](CS)C(=O)O [Acetylcysteine] — lower, < 0.0301
- CCCCC/C=C\C/C=C\C/C=C\C/C=C\CCCC(=O)C(F)(F)F [Arachidonyl trifluoromethyl ketone] — lower, < 0.0301
- O=[As]O[As]=O (stereo not given) [Arsenic trioxide] — lower, < 0.0301

Same assay, conditions: 72 h; co-treatment: DMSO vehicle

Point of comparison: `CCC(CC#N)OC(=O)N[C@@H](C)c1cccc(NC(=O)Nc2ccc(-c3cnco3)c(OC)c2)c1` (stereo in doubt) [AVN-944], “area under dose-response curve” value 0.233. Against it:
- CC(=O)N1CCN(c2ccc(OC[C@@H]3CO[C@@](Cn4ccnc4)(c4ccc(Cl)cc4Cl)O3)cc2)CC1 (racemic) [Ketoconazole] — lower, < 0.0301
- OC[C@H]1OC(O)C[C@@H](O)[C@@H]1O (stereo not given in full) [2-deoxyglucose] — lower, < 0.0301
- O=C(C(=O)c1ccc(Br)cc1)c1ccc(Br)cc1 [4,4'-Dibromobenzil] — lower, < 0.0301
- NS(=O)(=O)c1ccc(NC(=O)Cc2ccccc2)cc1 [4-(2-Phenylacetamido)Benzenesulfonamide] — lower, < 0.0301
- NCc1ccc(S(N)(=O)=O)cc1 [4-Homosulfanilamide] — lower, < 0.0301
- Oc1ncc(F)c(O)n1 [5-fluorouracil] — lower, < 0.0301
- NCc1ccc(-c2cccnc2)s1 [(5-Pyrid-3-YLTHIEN-2-YL)METHYLAMINE] — lower, < 0.0301
- CC(=O)N[C@@H](CS)C(=O)O [Acetylcysteine] — lower, < 0.0301
- CCCCC/C=C\C/C=C\C/C=C\C/C=C\CCCC(=O)C(F)(F)F [Arachidonyl trifluoromethyl ketone] — lower, < 0.0301
- O=[As]O[As]=O (stereo not given) [Arsenic trioxide] — lower, < 0.0301

Same assay, conditions: 72 h; co-treatment: GSK2194069 100 nM

Point of comparison: `CCCCC/C=C\C/C=C\C/C=C\C/C=C\CCCC(=O)C(F)(F)F` [Arachidonyl trifluoromethyl ketone], “area under dose-response curve” value 0.0624. Against it:
- CC(=O)N1CCN(c2ccc(OC[C@@H]3CO[C@@](Cn4ccnc4)(c4ccc(Cl)cc4Cl)O3)cc2)CC1 (racemic) [Ketoconazole] — lower, < 0.0301
- CCC(CC#N)OC(=O)N[C@@H](C)c1cccc(NC(=O)Nc2ccc(-c3cnco3)c(OC)c2)c1 (stereo in doubt) [AVN-944] — higher, 0.227
- OC[C@H]1OC(O)C[C@@H](O)[C@@H]1O (stereo not given in full) [2-deoxyglucose] — lower, < 0.0301
- O=C(C(=O)c1ccc(Br)cc1)c1ccc(Br)cc1 [4,4'-Dibromobenzil] — lower, < 0.0301
- NS(=O)(=O)c1ccc(NC(=O)Cc2ccccc2)cc1 [4-(2-Phenylacetamido)Benzenesulfonamide] — lower, < 0.0301
- NCc1ccc(S(N)(=O)=O)cc1 [4-Homosulfanilamide] — lower, < 0.0301
- Oc1ncc(F)c(O)n1 [5-fluorouracil] — lower, < 0.0301
- NCc1ccc(-c2cccnc2)s1 [(5-Pyrid-3-YLTHIEN-2-YL)METHYLAMINE] — lower, < 0.0301
- CC(=O)N[C@@H](CS)C(=O)O [Acetylcysteine] — lower, < 0.0301
- O=[As]O[As]=O (stereo not given) [Arsenic trioxide] — lower, < 0.0301

Same assay, conditions: 72 h; co-treatment: pictilisib 100 nM

Point of comparison: `CCC(CC#N)OC(=O)N[C@@H](C)c1cccc(NC(=O)Nc2ccc(-c3cnco3)c(OC)c2)c1` (stereo in doubt) [AVN-944], “area under dose-response curve” value 0.255. Against it:
- CC(=O)N1CCN(c2ccc(OC[C@@H]3CO[C@@](Cn4ccnc4)(c4ccc(Cl)cc4Cl)O3)cc2)CC1 (racemic) [Ketoconazole] — lower, < 0.0301
- OC[C@H]1OC(O)C[C@@H](O)[C@@H]1O (stereo not given in full) [2-deoxyglucose] — lower, < 0.0301
- O=C(C(=O)c1ccc(Br)cc1)c1ccc(Br)cc1 [4,4'-Dibromobenzil] — lower, < 0.0301
- NS(=O)(=O)c1ccc(NC(=O)Cc2ccccc2)cc1 [4-(2-Phenylacetamido)Benzenesulfonamide] — lower, < 0.0301
- NCc1ccc(S(N)(=O)=O)cc1 [4-Homosulfanilamide] — lower, < 0.0301
- Oc1ncc(F)c(O)n1 [5-fluorouracil] — lower, < 0.0301
- NCc1ccc(-c2cccnc2)s1 [(5-Pyrid-3-YLTHIEN-2-YL)METHYLAMINE] — lower, < 0.0301
- CC(=O)N[C@@H](CS)C(=O)O [Acetylcysteine] — lower, < 0.0301
- CCCCC/C=C\C/C=C\C/C=C\C/C=C\CCCC(=O)C(F)(F)F [Arachidonyl trifluoromethyl ketone] — lower, < 0.0301
- O=[As]O[As]=O (stereo not given) [Arsenic trioxide] — lower, < 0.0301
